From patent publication US20250108023A1, “Products for Masking Bitterness” (The Third People's Hospital of Henan Province, priority 2023, published 2025)
Where two headings read alike, the source gives them in different places.

Columns and labels:
[1] = Oral spray bitterness masking taste test by volunteers with Coptis chinensis standard bitter solution; assay type: in vivo, healthy volunteers; design: key to bitterness value after drug: bitterness value 0.5–5.5; 1 = none, 5 = unbearable; key to Reduction of bitterness: drop in bitterness value (0.5–5.5 scale) from initial; details: for inhibition in vivo at 0.2 %: Homo sapiens, read-out: Reduction range; for Reduction of bitterness: original bitterness average 4.0, average of 31 cases; for bitterness value after drug: initial bitterness 4.0, 16 cases
Protocol: Purpose of the experiment: it is to screen out compounds that take effect within 5 seconds, last for 30-120 seconds, and it is expected, by using such kind of compounds, the taste of the drug cannot be felt during the duration (30-120 seconds) when taking the drug.
Principle of the experiment: simulate the process of taking medicine and using the taste masking agents, first spray about 0.5 ml of oral spray on the throat (3 times), and after it takes effect quickly, taste 10 ml of bitter standard solution to screen drugs that can be used in advance and can mask the bitter taste.
• 1: Volunteer screening. The research team strictly screened the recruited volunteers and finally selected healthy volunteers as subjects. They signed informed consent forms before the experiment; • 2: Standard bitterness sample preparation. The bitterness of the samples was divided into five levels, and each level was assigned a certain bitterness value range; • 3: The sensory standard was corrected by the oral taste evaluation method, that is, the sensory standard was corrected by comparing the taste evaluation of the volunteers with the established bitterness value of the reference sample group. Specific steps: when the volunteers are doing the oral tasting test, the reference solutions of various concentrations are placed in the tasting cups, and the volunteers hold one of the solutions in their mouths, time it, and rinse their mouths by using the solution so that the bitter taste perception area at the root and sides of the tongue can fully feel the bitter taste of the drug. […] Then dilute all the selected taste masking drugs, prepare the solution, take 10 ml and put it into the spray bottle, spray it into the mouth 3 times, stay for 5 seconds, drink 10 ml of standard bitterness solution, feel and record the bitterness value, keep the standard bitterness solution in the mouth until the bitterness rises, and record the retention time. • 5: Quality control. […] Since the experimental objects are biological samples and there are individual differences between different subjects, there may be individual outliers in the experimental test data. The Grubbs test method was used to exclude outliers in the data, and then the experimental data were plotted in tables and curves for data analysis.
It is necessary to process the experimental data. Specifically, the Grubbs test method was used to perform a circular test and elimination of outliers on the data, and a bilateral test was used to eliminate outliers in the oral test. Considering the characteristics of biological samples, the detection level was selected as 0.1 and the elimination level was selected as 0.05 in this experiment.
The experimental medicinal material processing method mentioned in the above technical scheme is as follows: Preparation of bitter standard solution, use 10 g of Coptis chinensis powder, add 100 ml of pure water above 90 degrees, stir, let stand for 20 minutes, take the supernatant for use, determine the standard bitterness of 4.0 degrees by oral tasting, dilute 5 times, determine the standard bitterness of 2.0 degrees, dilute 2.0 degrees again 5 times, determine the standard bitterness of 0.5 degrees. Compare with the bitterness scoring table, (level 1 means “no bitterness or almost no bitterness”, the bitterness value is 0.5˜1.5; level 2 means “slightly bitter”, the bitterness value is 1.5˜2.5; level 3 means “bitter but acceptable”, the bitterness value is 2.5˜3.5; level 4 means “very bitter, but still tolerable”, the bitterness value is 3.5˜4.5; level 5 means “unbearable bitterness”, the bitterness value is 4.5˜5.5). Adjust the judgment and cognition of bitterness.
The standard bitterness solution used in this experiment to verify the experimental effect is a 4.0 degree bitterness solution of Coptis chinensis prepared according to the above method.

[2] = target: T1, sodium ion channel of Trpm5 bitter receptor (Mus musculus, UniProt Q9JJH7); assay: Immunofluorescence experiment of sodium ion channels in mouse tongue cells stimulated with bitter agent; assay type: cell-based, mice; details: for blocking effect on the sodium ion channel (result analysis in words): judged from change of sodium ion fluorescence after bitter drug
T1 construct: Put the removed tongue in a 2 ml EP tube, add 1-1.5 ml of 0.25% trypsin solution; from tissue; host or cells: cells dissociated with trypsin from mouse tongue
T1 sequence (Q9JJH7 1-1158): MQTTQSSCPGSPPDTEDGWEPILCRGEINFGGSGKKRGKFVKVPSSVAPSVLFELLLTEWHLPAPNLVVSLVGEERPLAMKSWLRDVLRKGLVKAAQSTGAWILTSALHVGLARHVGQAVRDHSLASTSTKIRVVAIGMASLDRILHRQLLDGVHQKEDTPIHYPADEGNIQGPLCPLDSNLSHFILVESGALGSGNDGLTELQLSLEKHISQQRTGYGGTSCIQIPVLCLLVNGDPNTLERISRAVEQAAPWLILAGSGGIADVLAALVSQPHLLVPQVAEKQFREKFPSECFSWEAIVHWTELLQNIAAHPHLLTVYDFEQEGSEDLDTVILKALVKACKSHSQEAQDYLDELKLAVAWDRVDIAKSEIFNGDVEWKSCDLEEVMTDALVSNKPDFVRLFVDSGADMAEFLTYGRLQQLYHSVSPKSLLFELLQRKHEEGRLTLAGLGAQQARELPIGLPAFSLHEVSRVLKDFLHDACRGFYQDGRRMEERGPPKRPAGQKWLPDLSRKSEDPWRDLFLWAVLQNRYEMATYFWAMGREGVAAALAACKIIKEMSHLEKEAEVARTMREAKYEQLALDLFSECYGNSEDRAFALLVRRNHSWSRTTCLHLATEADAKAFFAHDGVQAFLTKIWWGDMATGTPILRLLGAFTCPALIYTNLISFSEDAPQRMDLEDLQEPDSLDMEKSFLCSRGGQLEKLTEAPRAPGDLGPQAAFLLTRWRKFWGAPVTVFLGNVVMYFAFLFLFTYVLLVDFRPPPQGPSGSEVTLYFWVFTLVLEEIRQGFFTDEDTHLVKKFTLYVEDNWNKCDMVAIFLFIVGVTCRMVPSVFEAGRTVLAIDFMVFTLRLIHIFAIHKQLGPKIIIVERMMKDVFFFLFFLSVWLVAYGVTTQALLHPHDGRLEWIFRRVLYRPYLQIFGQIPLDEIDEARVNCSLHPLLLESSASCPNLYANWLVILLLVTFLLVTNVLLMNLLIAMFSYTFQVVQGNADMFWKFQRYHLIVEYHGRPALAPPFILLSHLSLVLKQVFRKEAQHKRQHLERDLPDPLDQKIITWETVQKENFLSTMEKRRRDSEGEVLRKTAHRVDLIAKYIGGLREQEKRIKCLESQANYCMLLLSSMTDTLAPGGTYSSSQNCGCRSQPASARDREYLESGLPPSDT
Protocol: The mouse was killed by dislocation, and the tongue was removed (minimizing tongue bleeding), disinfected with alcohol for 2 minutes (adding sodium citrate for anticoagulation), and washed with D-Hanks solution or rinsed with 10 ml of saline solution drawn by a syringe.
Take out the centrifuge tube from the constant temperature incubator, shake for 2 minutes, blow the undigested tongue several times with the gun tip, take out the tongue, cover it with the EP tube cap, put it in a centrifuge, centrifuge at 3000 rpm for 3 minutes, discard the supernatant, add cell culture medium (containing 10% inactivated serum), blow and disperse the cells, and place it in a 37° C. constant temperature incubator for 30 min to allow the cells to recover.
(1) Take out the prepared ENG-2 AM storage solution and warm it to room temperature for use, keeping it away from light. The concentration of the pre-prepared stock solution is 2 mM and it is stored at −18° C. for future use.
(2) Dilute the ENG-2 AM+DMSO stock solution to a […] working solution using serum-free culture medium.
(3) Load the probe in a serum-free culture medium containing an appropriate concentration of AM probe.
Take out the cells from the incubator, centrifuge, and discard the culture medium. Wash the cells once with D-Hanks solution, centrifuge, and discard the culture medium. Add 1 ml of culture medium again, then add 300 ul of sodium ion probe dilution solution, blow and disperse the cells, and incubate the cells at room temperature or 37° C. for 1 hour.
At the end of incubation, centrifuge at 100 rpm for 2 minutes, discard the supernatant, add 500 ul of cell culture medium without AM probe, blow and disperse the cells, and incubate for 20-60 min to ensure that the cells completely deesterify the AM group.
(4) Take 10 ul of incubation solution and drop it into the center of the cell counting plate, cover it with a slide, and observe it under a fluorescence microscope.
(5) Use a low-power microscope to find the cells, open the fluorescence path, detect the fluorescence signal with a fluorescence microscope, change to a high-power microscope, find the appropriate observation cells, observe and take pictures to record the initial signal.
(2) Experimental drugs: Add 5 ul of the tested drug to one side of the cover glass on the cell counting plate, use absorbent paper to absorb water on the opposite side, let the solution soak the cells, and then use a fluorescence microscope to observe and take 3-5 photos, one every 1-2 minutes; then add 5 ul of the standard bitter drug to one side of the cover glass on the cell counting plate, use absorbent paper to absorb water on the opposite side, let the solution soak the cells, and then use a fluorescence microscope to observe and take 3-5 photos, one every 1-2 minutes.
(5) Data analysis: Use Image J-Fiji software to analyze the images, compare the average values of the fluorescence pixels, remove the base number and compare them in the table, draw FIGS. 4-6, and use SPSS18.0 to perform chi-square tests to compare the differences between the data groups.

[3] = 0.2% solution in 60% ethanol as oral spray, relative to original bitterness 4.0
[4] = Bitterant 60 s (2% metronidazole solution)
[5] = Bitterant 120 s (2% metronidazole solution)
[6] = Bitterant 180 s (2% metronidazole solution)
[7] = Bitterant 240 s (2% metronidazole solution)
[8] = Initial (before addition of drug), sodium ion dye ENG-2 AM
[9] = 0.2% solution in 60% ethanol as oral spray

average value of fluorescence brightness ([2]; Addition of drugs)	average value of fluorescence brightness, base number removed ([2]; Addition of drugs)	average value of fluorescence brightness [2, 4]	average value of fluorescence brightness, base number removed [2, 4]	average value of fluorescence brightness [2, 5]	average value of fluorescence brightness, base number removed [2, 5]	average value of fluorescence brightness [2, 6]	average value of fluorescence brightness, base number removed [2, 6]	average value of fluorescence brightness, base number removed ([2]; Initial)	average value of fluorescence brightness [2, 8]	Compound	blocking effect on the sodium ion channel (result analysis in words) [2]	further results
–	–	–	–	–	–	–	–	–	–	Cc1ccc(C(C)C)cc1O [Carvacrol]	–	inhibition in vivo at 0.2 % ([1]; po): 0%
–	–	–	–	–	–	–	–	–	–	O=C(CCc1ccc(O)cc1)c1c(O)cc(O)cc1O [Phloretin]	–	inhibition in vivo at 0.2 % [1, 3]: 0%
–	–	–	–	–	–	–	–	–	–	O=c1c(O)c(-c2ccc(O)c(O)c2)oc2cc(O)cc(O)c12 [Quinolide]	–	inhibition in vivo at 0.2 % [1, 3]: 0%
–	–	–	–	–	–	–	–	–	–	Dodecalactone	–	Reduction of bitterness [1, 9]: 0; Reduction range [1, 3]: 0.00%
–	–	–	–	–	–	–	–	–	–	CCOC(=O)CNC(=O)[C@@H]1C[C@H](C)CC[C@H]1C(C)C [Cooling agent WS-5, [((IR, 2S, 5R)-2-isopropyl-5-methyl-cyclohexanecarbonyl)-amino]-ethyl acetate]	–	Reduction of bitterness [1, 9]: 2.3; Reduction range [1, 3]: 57.50%; Duration > ([1]; 0.2% solution in 60% ethanol as oral spray, retention time until bitterness rises): > 100 s; bitterness value after drug ([1]; concentration 0.001% in 60% ethanol): 2.6; bitterness value after drug ([1]; concentration 0.005% in 60% ethanol): 1.8; bitterness value after drug ([1]; concentration 0.02% in 60% ethanol): 1.7; bitterness value after drug ([1]; concentration 0.10% in 60% ethanol): 1.7; bitterness value after drug ([1]; concentration 0.50% in 60% ethanol): 1.8
28.082	0.093	27.496	−0.493	27.697	−0.292	27.919	−0.07	0	27.989	Hydroxyvanillic acid	have poor effects and do not have bitterness masking effect	–
28.425	−0.113	28.141	−0.397	27.831	−0.707	28.191	−0.347	0	28.538	CC1CCC(C(C)C)C(OC(=O)C(C)O)C1 (centres unmarked) [Menthyl lactate, 2-hydroxypropionic acid-5-methyl-2-(1-methylethyl)cyclohexyl ester]	can block the sodium ion channel of Trpm5 bitter receptor	–
27.367	0.082	27.287	0.002	27.21	−0.075	27.127	−0.158	0	27.285	NCCCC(=O)O [GABA, 4-aminobutyric acid]	have poor effects and do not have bitterness masking effect	–

Compound	average value of fluorescence brightness ([2]; Addition of drugs)	average value of fluorescence brightness, base number removed ([2]; Addition of drugs)	average value of fluorescence brightness [2, 4]	average value of fluorescence brightness, base number removed [2, 4]	average value of fluorescence brightness [2, 5]	average value of fluorescence brightness, base number removed [2, 5]	average value of fluorescence brightness [2, 6]	average value of fluorescence brightness, base number removed [2, 6]	average value of fluorescence brightness, base number removed ([2]; Initial)	average value of fluorescence brightness [2, 8]	blocking effect on the sodium ion channel (result analysis in words) [2]	further results
CC1CCC(C(C)C)C(O)C1 (centres unmarked) [Menthol, 2-isopropyl-5-methylcyclohexanol]	22.118	−0.435	22.04	−0.513	21.924	−0.629	21.907	−0.646	0	22.553	can block the sodium ion channel of Trpm5 bitter receptor	average value of fluorescence brightness [2, 7]: 20.562; average value of fluorescence brightness, base number removed [2, 7]: −1.991
